Data as given in patent US10723741B1, “DNA polymerase IIIC inhibitors and use thereof” (Acurx Pharmaceuticals, LLC, priority 2018, dated 2020).
≈ marks a conversion by molar mass, not a printed value.

What was measured:
Format in all cases: cell-based
[1] = tested on: Staphylococcus aureus NRS384 (MRSA); test: Broth microdilution MIC, S. aureus NRS384 (MRSA); conditions: Staphylococcus aureus; broth microdilution, 37° C., 20 hours; read-out: MIC NRS 384 (MRSA)
Source text: (§1) Bacteria tested are Staphylococcus aureus NRS384 (a methicillin-resistant Staphylococcus aureus, MRSA), Staphylococcus aureus ATCC 29213 (a methicillin-sensitive Staphylococcus aureus, MSSA), Streptococcus pneumoniae ATCC 49619, Enterococcus faecalis ATCC 29212, Enterococcus faecium ATCC 700221 (a vancomycin-resistant enterococcus, VRE), Bacillus subtilis ATCC 6633, and Escherichia coli ATCC 25922.
(§2) Staphylococcus aureus NRS384 was obtained from NARSA (Network on Antimicrobial Resistance in Staphylococcus aureus, now the strain collection is in BEI resources). Other bacterial isolates were from ATCC (The American Type Culture Collection). Upon receiving the bacteria samples from aforementioned institutes, the bacteria were cultured according to the manuals provided by the suppliers. The bacteria were stored in 25% glycerol (final concentration) at −80° C.
(§3) On the day of testing, the compounds were dissolved in pure DMSO (Sigma 276855-1L) to […] as stock. In a v-bottom 96-well plate (Axygen-wipp02280), 20 μl DMSO was added into well 2 to well 12 by manual pipetting. Into well 1, 12.8 μL of compound DMSO stock (20 mg/ml) was added and mixed with 27.2 μl DMSO by pipetting. Two fold serial dilutions were performed by transferring and mixing 20 μl of solution from well 1 to well 2, then well 2 to well 3 and so forth until well 11. The well 12 was loaded with 20 μl DMSO without compounds. This was drug ‘mother plate’. From well 1 to well 12, the drug concentrations in the mother plate were […] in DMSO. A multi-pipette was used to perform the serial dilutions. The concentration may be adjusted according to the potency of the compounds. An Echo® Acoustic liquid handling system may be used to replace manual pipetting to make the daughter plates.
(§4) One day prior to the day of MIC testing, bacterial strains were streaked out from −80° C. glycerol stocks onto MHA plates and incubated at 37° C. for 20 hours. Streptococcus pneumoniae was streaked on blood agar and incubated at 37° C. in 5% CO2. The single colonies were picked by using an inoculation loop (Greiner-731175) and suspended into 5 ml sterile saline. The turbidity of the suspension was adjusted to 0.10 (Siemens MicroScan turbidity meter), equal to ˜1.0×10^8 cfu/ml. The bacterial suspension was diluted 200× in corresponding test medium (Table 1). This was used to inoculate daughter plates.
(§5) For preparing u-bottom 96-well ‘daughter plates’ (Costar 3788), an aliquot of 1 μl solution from mother plate was then replicating transferred into the daughter plate using a multi-pipette.
(§6) An aliquot of 99 μl of the bacterial suspension was inoculated into each well of the daughter plates using a multi-pipette. Each well contained ˜5.0×10^5 cfu/ml bacteria, 1% DMSO and serially diluted compounds at 64, 32, 16, 8, 4, 2, 1, 0.5, 0.25, 0.125, 0.0625 and 0 μg/ml from well 1 to well 12 respectively, in 100 μl corresponding test medium.
(§7) The plates were incubated in ambient atmosphere and in a 37° C. incubator for 20 hours.
(§8) Compounds of the present invention were tested for antibacterial activity against a variety of bacterial organism including Bacillus subtilis, Staphylococcus aureus, Enterococcus faecalis, Enterococcus faecium, Streptococcus pneumoniae and Escherichia coli. […] Compounds described in Examples 2, 44, 53, 56, 90, 134, 212, 213, 214, 218, 222, 304, 305, and 307 had MIC of ≤1 μg/ml against S. aureus NRS 384 (MRSA) (μg/ml) and E. faecium ATCC 700221 (VRE) (μg/ml).

[2] = tested on: Staphylococcus aureus ATCC 29213 (MSSA); test: Broth microdilution MIC, S. aureus ATCC 29213 (MSSA); conditions: broth microdilution, 37° C., 20 hours, read-out: MIC S. aureus ATCC 29213 (MSSA)
Source text: as §1, §2, §3, §4, §5, §6, §7, §8

[3] = tested on: Enterococcus faecalis ATCC 29212; test: Broth microdilution MIC, E. faecalis ATCC 29212; conditions: ATCC29212, broth microdilution, 37° C., 20 hours, read-out: MIC E. faecalis ATCC 29212
Source text: as §1, §2, §3, §4, §5, §6, §7, §8

[4] = tested on: Enterococcus faecium ATCC 700221 (VRE); test: Broth microdilution MIC, E. faecium ATCC 700221 (VRE); conditions: Enterococcus faecium; broth microdilution, 37° C., 20 hours; read-out: MIC E. faecium ATCC 700221 (VRE)
Source text: as §1, §2, §3, §4, §5, §6, §7, §8

[5] = tested on: Streptococcus pneumoniae ATCC 49619; test: Broth microdilution MIC, S. pneumoniae ATCC 49619; conditions: ATCC49619, broth microdilution, 37° C., 20 hours, read-out: MIC S. pneumoniae ATCC 49619
Source text: as §1, §2, §3, §4, §5, §6, §7, §8

[6] = tested on: Bacillus subtilis ATCC 6633; test: Broth microdilution MIC, B. subtilis ATCC 6633; conditions: ATCC6633, broth microdilution, 37° C., 20 hours, read-out: MIC B. subtilis ATCC 6633
Source text: as §1, §2, §3, §4, §5, §6, §7, §8

[7] = tested on: Escherichia coli ATCC 25922; test: Broth microdilution MIC, E. coli ATCC 25922 (MHIIB w & w/o 4 mM EDTA); conditions: broth microdilution, 37° C., 20 hours; for MIC: Escherichia coli, ATCC25922, without EDTA, read-out: MIC E. coli ATCC 25922; for MIC E. coli ATCC 25922 + 4 mM EDTA: with 4 mM EDTA
Source text: as §1, §2, §3, §4, §5, §6, §7, §8

Compound: Cn1ncc2nc(NCc3ccc(Cl)c(F)c3)[nH]c(=O)c21 [Compound 1, 5-((4-chloro-3-fluorobenzyl)amino)-1-methyl-1H-pyrazolo[4,3-d]pyrimidin-7(6H)-one]
- MIC [1]: 8 µg/mL (≈ 26 µM)
- MIC [2]: 8 µg/mL (≈ 26 µM)
- MIC [3]: 16 µg/mL (≈ 52 µM)
- MIC [4]: 8 µg/mL (≈ 26 µM)
- MIC [5]: 4 µg/mL (≈ 13 µM)
- MIC [6]: 4 µg/mL (≈ 13 µM)
- MIC [7]: > 64 µg/mL
- MIC E. coli ATCC 25922 + 4 mM EDTA [7]: 32 µg/mL

Compound: Cn1ncc2nc(NCc3ccccc3)[nH]c(=O)c21 [Compound 3, 5-(Benzylamino)-1-methyl-1H-pyrazolo[4,3-d]pyrimidin-7(6H)-one]
- MIC [1]: 64 µg/mL (≈ 251 µM)
- MIC [2]: 32 µg/mL (≈ 125 µM)
- MIC [3]: 64 µg/mL (≈ 251 µM)
- MIC [4]: 32 µg/mL (≈ 125 µM)
- MIC [5]: 32 µg/mL (≈ 125 µM)
- MIC [6]: 32 µg/mL (≈ 125 µM)
- MIC [7]: > 64 µg/mL
- MIC E. coli ATCC 25922 + 4 mM EDTA [7]: >64 µg/mL

Compound: Cn1ncc2nc(NCc3ccccn3)[nH]c(=O)c21 [Compound 4, 1-Methyl-5-((pyridin-2-ylmethyl)amino)-1H-pyrazolo[4,3-d]pyrimidin-7(6H)-one]
- MIC [1]: > 64 µg/mL
- MIC [2]: > 64 µg/mL
- MIC [3]: > 64 µg/mL
- MIC [4]: > 64 µg/mL
- MIC [5]: > 64 µg/mL
- MIC [6]: > 64 µg/mL
- MIC [7]: > 64 µg/mL
- MIC E. coli ATCC 25922 + 4 mM EDTA [7]: >64 µg/mL

Compound: Cn1ncc2nc(NCc3cccnc3)[nH]c(=O)c21 [Compound 5, 1-Methyl-5-(3-pyridylmethylamino)-6H-pyrazolo[4,3-d]pyrimidin-7-one]
- MIC [1]: > 64 µg/mL
- MIC [2]: > 64 µg/mL
- MIC [3]: > 64 µg/mL
- MIC [4]: > 64 µg/mL
- MIC [5]: > 64 µg/mL
- MIC [6]: > 64 µg/mL
- MIC [7]: > 64 µg/mL
- MIC E. coli ATCC 25922 + 4 mM EDTA [7]: >64 µg/mL

Compound: Cn1ncc2nc(NCc3ccncc3)[nH]c(=O)c21 [Compound 6, 1-Methyl-5-((pyridin-4-ylmethyl)amino)-1H-pyrazolo[4,3-d]pyrimidin-7(6H)-one]
- MIC [1]: > 64 µg/mL
- MIC [2]: > 64 µg/mL
- MIC [3]: > 64 µg/mL
- MIC [4]: > 64 µg/mL
- MIC [5]: > 64 µg/mL
- MIC [6]: > 64 µg/mL
- MIC [7]: > 64 µg/mL
- MIC E. coli ATCC 25922 + 4 mM EDTA [7]: >64 µg/mL

Compound: Cn1ncc2nc(NCc3ccc(F)c(F)c3)[nH]c(=O)c21 [Compound 7, 5-((3,4-Difluorobenzyl)amino)-1-methyl-1H-pyrazolo[4,3-d]pyrimidin-7(6H)-one]
- MIC [1]: 16 µg/mL (≈ 54.9 µM)
- MIC [2]: 16 µg/mL (≈ 54.9 µM)
- MIC [3]: 16 µg/mL (≈ 54.9 µM)
- MIC [4]: 8 µg/mL (≈ 27.5 µM)
- MIC [5]: 8 µg/mL (≈ 27.5 µM)
- MIC [6]: 8 µg/mL (≈ 27.5 µM)
- MIC [7]: > 64 µg/mL
- MIC E. coli ATCC 25922 + 4 mM EDTA [7]: >64 µg/mL

Compound: Cn1ncc2nc(NCCc3ccc(Cl)c(Cl)c3)[nH]c(=O)c21 [Compound 8, 5-((3,4-Dichlorophenethyl)amino)-1-methyl-1H-pyrazolo[4,3-d]pyrimidin-7(6H)-one]
- MIC [1]: > 64 µg/mL
- MIC [2]: > 64 µg/mL
- MIC [3]: > 64 µg/mL
- MIC [4]: > 64 µg/mL
- MIC [5]: > 64 µg/mL
- MIC [6]: > 64 µg/mL
- MIC [7]: > 64 µg/mL
- MIC E. coli ATCC 25922 + 4 mM EDTA [7]: >64 µg/mL

Compound: Cn1ncc2nc(Nc3ccc(Cl)c(Cl)c3)[nH]c(=O)c21 [Compound 9, 5-((3,4-Dichlorophenyl)amino)-1-methyl-1H-pyrazolo[4,3-d]pyrimidin-7(6H)-one]
- MIC [1]: > 64 µg/mL
- MIC [2]: > 64 µg/mL
- MIC [3]: > 64 µg/mL
- MIC [4]: > 64 µg/mL
- MIC [5]: > 64 µg/mL
- MIC [6]: > 64 µg/mL
- MIC [7]: > 64 µg/mL
- MIC E. coli ATCC 25922 + 4 mM EDTA [7]: >64 µg/mL

Compound: Cn1ncc2nc(Nc3ccccc3)[nH]c(=O)c21 [Compound 10, 1-Methyl-5-(phenylamino)-1H-pyrazolo[4,3-d]pyrimidin-7(6H)-one]
- MIC [1]: > 64 µg/mL
- MIC [2]: > 64 µg/mL
- MIC [3]: > 64 µg/mL
- MIC [4]: > 64 µg/mL
- MIC [5]: > 64 µg/mL
- MIC [6]: > 64 µg/mL
- MIC [7]: > 64 µg/mL
- MIC E. coli ATCC 25922 + 4 mM EDTA [7]: >64 µg/mL

Compound: Cn1ncc2nc(NCc3ncccn3)[nH]c(=O)c21 [Compound 11, 1-Methyl-5-((pyrimidin-2-ylmethyl)amino)-1H-pyrazolo[4,3-d]pyrimidin-7(6H)-one]
- MIC [1]: > 64 µg/mL
- MIC [2]: > 64 µg/mL
- MIC [3]: > 64 µg/mL
- MIC [4]: > 64 µg/mL
- MIC [5]: > 64 µg/mL
- MIC [6]: > 64 µg/mL
- MIC [7]: > 64 µg/mL
- MIC E. coli ATCC 25922 + 4 mM EDTA [7]: >64 µg/mL
